Data published in patent US4882343A, “Biarylalkylimidazole derivatives as anti-depressants” (G. D. Searle & Co., priority 1987, dated 1989).

Assays:
[1] = tested on: clonidine-induced depression of locomotor activity (α2 agonist effects); experiment: open field test, antagonism of clonidine-induced depression of locomotor and rearing activity; assay type: in vivo, mouse; settings: 3 mg/kg p.o.; for Open field test % inhibition of clonidine hypomobility, Locomotion / Open field test % inhibition of clonidine hypomobility, Rearing: 1 h before clonidine 150 μg/kg i.p., mouse
Experimental: This study involved clonidine α2 agonist effects on central control of locomotor activity. Clonidine inhibits locomotor activity and rearing activity in the mouse. In this "open field" test, mice were pretreated with the compounds of the present invention at a dose of 3 mg/kg p.o. (n=4 to 8), one hour prior to intraperitoneal administration of clonidine in solution (150 μg/kg, i.p.). Ninety minutes after the clonidine administration the animals were placed in a rectangular "open field" of 47×53 cm, having a floor divided into 36 boxes of about 8×9 cm. The number of boxes through which the animal goes in 3 minutes and the number of rearing episode were noted.

[2] = tested on: α1 adrenergic receptor; experiment: in vitro binding to alpha1-adrenergic receptors (3H-WB4101 or 3H-prazosin displacement), rat brain homogenates; settings: for % Inhibition of the specific binding for α1 receptor, Ligand WB / % Inhibition of the specific binding for α1 receptor, Ligand PRA: compd. conc. 10^-6 M, rat brain homogenates; for % Inhibition of the specific binding for α1 receptor, Ligand WB: ligand 3H-WB4101 1.6 nM; for % Inhibition of the specific binding for α1 receptor, Ligand PRA: ligand 3H-prazosin 0.2 nM; for Ki: ligand 3H-prazosin, Cheng and Prusoff, read-out: α1 receptor Ki value, ligand PRA
Experimental: Table II summarizes the binding activities for α1 and α2 adrenergic receptors of the compounds tested. The activity of the compounds according to the invention with respect to binding of the α-adrenergic receptors was determined in vitro according to a method derived from the works of B. R. Rouot, et al., Life Sci., 25, 769 (1979) of D. U'Prichard, et al., Mol. Pharmacol., 13, 454 (1977) and of P. Greengrass, et al., European J. Pharmacol., 55, 323, 1979. This method measures the binding to the receptor on rat brain homogenates by marking by means of a specific tritiated ligand placed in competition with the product to be tested. In the present case the binding, to the α1 -adrenergic receptors was measured by use of 1.6 nM of H-WB 4101 (WB) and 0.2 nM --H--prazosin (PRA). The binding to the α2-adrenergic receptors was determined by uses of 0.7 nM of ^3 H-p-aminoclonidine (PAC). The non-specific binding was determined by use of 1,000 nM of phentolamine. Results are given in Table II with columns 2 and 3 expressed in terms of percentage of inhibition of the specific binding at 10^-7 molar and 10^-6 molar compound concentration.
In Table III, columns 2 and 3 show the pKi values (pKi=-log inhibition constant) for respecively the α1 receptor (ligand ^3 H-prazosin) and the α2 receptor (ligand ^3 H-p-aminoclonidine), calculated according to the equation of Cheng and Prusoff: [formula] wherein: Ki represents the inhibition constant;
IC50 represents the concentration of the test compound providing 50% inhibition of the specific binding;
(§1) KD represents the dissociation constant of the ^3 H-ligand in the test mixture
(§2) [L*] represents the concentration of the ^3 H-ligand in the test mixture.

[3] = tested on: α2 adrenergic receptor; experiment: in vitro binding to alpha2-adrenergic receptors (3H-p-aminoclonidine displacement), rat brain homogenates; settings: ratio of Ki, ligand PRA (α1) / ligand PAC (α2)
Experimental: (§3) This method measures the binding to the receptor on rat brain homogenates by marking by means of a specific tritiated ligand placed in competition with the product to be tested. […] The binding to the α2-adrenergic receptors was determined by uses of 0.7 nM of ^3 H-p-aminoclonidine (PAC). The non-specific binding was determined by use of 1,000 nM of phentolamine.
as §1, §2

[4] = target: T1, α2 adrenergic receptor (Rattus norvegicus, UniProt P22909); experiment: as above; settings: for inhibition at 0.1 µM: compd. conc. 10^-7 M, ligand 3H-p-aminoclonidine 0.7 nM, rat brain homogenates, read-out: % Inhibition of the specific binding for α2 receptor, Ligand PAC; for affinity for α2 receptors in the in vitro binding assay (in words): rat brain, result in words; for Ki: ligand 3H-p-aminoclonidine, Cheng and Prusoff, read-out: α2 receptor Ki value, ligand PAC; for α2-receptor binding affinity for the aminoclonidine ligand relative to the ortho-pyridyl compound (Compound 3): para- and meta-pyridyl compounds versus ortho-pyridyl compound, Table III column 3
T1 construct: rat brain homogenates; from tissue; host or cells: rat brain homogenate
T1 sequence (P22909 1-465): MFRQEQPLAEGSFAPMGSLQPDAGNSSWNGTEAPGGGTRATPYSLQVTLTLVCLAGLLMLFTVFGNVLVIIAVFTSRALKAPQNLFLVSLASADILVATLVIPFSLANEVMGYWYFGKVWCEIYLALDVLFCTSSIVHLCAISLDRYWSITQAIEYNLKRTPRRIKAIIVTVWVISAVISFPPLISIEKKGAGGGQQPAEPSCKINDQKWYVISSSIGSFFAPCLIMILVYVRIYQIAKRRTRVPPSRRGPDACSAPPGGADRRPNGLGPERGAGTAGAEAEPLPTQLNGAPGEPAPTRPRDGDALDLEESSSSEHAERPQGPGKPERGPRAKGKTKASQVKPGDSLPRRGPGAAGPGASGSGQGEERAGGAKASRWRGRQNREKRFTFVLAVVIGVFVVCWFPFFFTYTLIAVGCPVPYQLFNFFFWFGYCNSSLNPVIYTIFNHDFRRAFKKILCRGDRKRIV
Experimental: as §3, §1, §2

[5] = acute toxicity after oral administration to mice (LD50); settings: mouse, in vivo, mortality recorded for 15 days
Experimental: The acute toxicity of the compounds of the present invention was studied after oral administration to mice. The products to be tested, suspended in a 1% tragacanth gum mucilage, were administered by means of an intragastric probe to groups of three male mice which had fasted since the preceding day. The doses tested are a function of the effect observed and can vary from 3,000 to 3 mg/kg or less. The mortality was recorded for 15 days. The lethal dose for 50% of the animals (LD50) was calculated according to the method of J. Litchfield and F. Wilcoxon, J. Pharmacol. Exp. Ther., 96, 99 (1949) and expressed in mg/kg. The effect of the products on the behavior of the animals was observed during a 5-to-6 hour period after the treatment indicated above and after 24 hours, using a method derived from that of S. Irwin, described by R. A. Turner, Screening Methods in Pharmacology, Chapter 3, pages 22-34, Academic Press, 1965. If anomalies were noted, the observation was prolonged and smaller doses were tested. The compounds of the present invention have been subjected to a series of in vitro and in vivo tests to determine their biological activity and therapeutic utility. The essential activity of importance resides in the α2 receptor antagonistic activity. […]

[6] = target: T2, α2 adrenergic receptors (Cavia porcellus, UniProt Q60474); experiment: isolated guinea pig ileum, α2 antagonistic and α2 agonistic activity (clonidine inhibition of electrically induced contractions)
T2 construct: upon isolated organs according to a model described by G. Drews; from tissue; host or cells: isolated guinea pig ileum
T2 sequence (Q60474 1-464): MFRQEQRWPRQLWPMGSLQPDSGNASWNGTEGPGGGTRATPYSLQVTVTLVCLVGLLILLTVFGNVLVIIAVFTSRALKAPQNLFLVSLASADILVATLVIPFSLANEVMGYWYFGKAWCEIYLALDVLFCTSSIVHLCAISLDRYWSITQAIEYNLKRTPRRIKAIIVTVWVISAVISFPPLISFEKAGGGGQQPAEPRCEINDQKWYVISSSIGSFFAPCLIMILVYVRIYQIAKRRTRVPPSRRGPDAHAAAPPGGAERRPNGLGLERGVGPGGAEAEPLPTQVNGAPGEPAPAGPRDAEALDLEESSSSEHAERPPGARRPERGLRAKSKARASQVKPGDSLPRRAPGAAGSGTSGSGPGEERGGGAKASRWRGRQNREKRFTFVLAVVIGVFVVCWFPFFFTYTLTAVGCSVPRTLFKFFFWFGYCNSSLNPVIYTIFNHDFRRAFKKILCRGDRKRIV
Experimental: In Table IV, columns 3 and 4 summarize the in vitro activities of the compounds evaluated in a guinea pig ileum model. Column 5 summarizes the α2 antagonistic effects of the compounds in an in vivo animal model. The α2 antagonistic and α2 agonistic activities of the compounds according to the invention were determined upon isolated organs according to a model described by G. Drews, Br. J. Pharmaco., 64, 293-300 (1978). This model was based upon the principle that the stimulation of the cholinergic nervous transmissions of the guinea pig ileum causes the liberation of acetyl choline, which in turn causes contractions of the ileum. The stimulation of the α2 -adrenergic receptors inhibits the activity of the cholinergic nerves and consequently reduces all responses due to the latter. Thus the contractions of the ileum induced by electric stimulation are inhibited by clonidine, an α2 agonist, in proportion to the dose. This inhibition was selectively displaced by α2 antagonists and not by α1 antagonists. The method used can be summarized as follows. Three dose-response curves to clonidine were established at an interval of 60 minutes. […] The dose-response curves were calculated as a percentage of the maximum inhibition obtained for the first curve. […] The α2 antagonist activity, expressed in pA2 value shown in column 3 of Table IV, was calculated according to J. M. Van Rossum, Arch. […]

| SMILES | Open field test % inhibition of clonidine hypomobility, Locomotion [1] [%] | Open field test % inhibition of clonidine hypomobility, Rearing [1] [%] | antagonism of clonidine-induced depression of locomotor and rearing activity (in words) ([1]; mouse open field, result in words) | % Inhibition of the specific binding for α1 receptor, Ligand WB [2] [%] | % Inhibition of the specific binding for α1 receptor, Ligand PRA [2] [%] | Ki [2] [nM] | Selectivity of α1/α2 affinity (Kiα1/Kiα2) [3] | inhibition at 0.1 µM [4] [%] | affinity for α2 receptors in the in vitro binding assay (in words) [4] | Ki [4] [nM] | α2-receptor binding affinity for the aminoclonidine ligand relative to the ortho-pyridyl compound (Compound 3) [4] | LD50 at 360 h [5] [mg/kg] | Kb ([6]; against clonidine, read-out: α2 antagonist activity pA2 (converted)) [nM] | EC50 ([6]; pD2 = -log ED50, 50% of maximum inhibition obtained with clonidine, read-out: α2 agonist activity pD2 (converted)) [nM] |
| --- | --- | --- | --- | --- | --- | --- | --- | --- | --- | --- | --- | --- | --- | --- |
| c1ccc(C(Cc2c[nH]cn2)c2ccncc2)cc1 (stereo not drawn) [Compound 1, 4(5)-[2-phenyl-2-(4-pyridinyl)-ethyl]-imidazole] | 90 | 80 | very active in this test | 2 | 14 | 13400 | 2900 | 91 | high affinity for α2 receptors | 4.6 | fifteen times higher |  |  |  |
| c1ccc(C(Cc2c[nH]cn2)c2ccccc2)cc1 [CC, reference compound] | 100 | 100 |  | 21 | 27 | 660 | 85 |  |  | 7.8 |  |  |  |  |
| c1ccc(C(Cc2c[nH]cn2)c2cccnc2)cc1 (stereo not drawn) [Compound 2, 4(5)-[2-phenyl-2-(3-pyridinyl)-ethyl]-imidazole] |  |  |  | 7 | 10 | 2600 | 540 | 94 | high affinity for α2 receptors | 4.8 | fifteen times higher | ~175 |  |  |
| c1ccc(C(Cc2c[nH]cn2)c2ccccn2)cc1 (stereo not drawn) [Compound 3, 4(5)-[2-phenyl-2-(2-pyridyl)-ethyl]-imidazole] |  |  |  | 0 |  |  |  | 40 |  | 73 |  | 130 | 50.1 | 100000 |
